Patent US20240173312A1, “Pharmaceutical Composition Comprising a Benzoheterocyclic Compound and Androgen Receptor Pathway Modulator and Application Thereof” (KANGPU BIOPHARMACEUTICALS, LTD., priority 2015, published 2024)
Where two headings read alike, the source gives them in different places.

Experiments:
[1] = system: Vcap cells (androgen receptor (+) prostate cancer cells)
Method: (§1) In vitro test of the inhibition effect of the compound in combination with androgen receptor pathway modulators and the like on the prostate cancer cell proliferation.
(§2) The tested compounds were used alone or in combination with other androgen receptor pathway modulators respectively. […] After that, 100 μl of CellTiter-Glo® cell viability assay reagent (Promega, catalogue number G7570) was added to each well and mixed well on a vibrator for 10 minutes to induce cell lysis. The 96-well plate was placed at room temperature for 10 minutes, so as to stabilize its luminescence signal. A white bottom membrane was pasted on the bottom of the plate and the plate was tested using EnSpire.

[2] = system: Vcap cells (androgen receptor (+) prostate cancer cells); experiment: CTG cell proliferation assay (CellTiter-Glo)
Method: as §1, §2

[3] = Homo sapiens, VCaP, 120 h, read-out: Survival rate of Vcap cells, Table 3, tested compound alone
[4] = Homo sapiens, VCaP, 120 h, read-out: Survival rate of Vcap cells, Table 4, tested compound alone
[5] = Homo sapiens, VCaP, 120 h, read-out: Survival rate of Vcap cells, Table 5, tested compound alone
[6] = Homo sapiens, VCaP, 120 h, read-out: Survival rate of Vcap cells, Table 9, tested compound alone
[7] = Homo sapiens, VCaP, 120 h, read-out: Survival rate of Vcap cells, Table 10, tested compound alone
[8] = Homo sapiens, VCaP, 120 h, read-out: Vcap cell proliferation inhibition rate

## Nc1cccc2c1CN(C1CCC(=O)NC1=O)C2=O (stereo not shown) [B001]
[1]
  inhibition: 21.4%
[2]; [3]
  viability at 0.1 µM: 92%
  viability at 10 µM: 81.9%
[2]; Homo sapiens, VCaP, 120 h, read-out: Survival rate of Vcap cells, Table 3, tested compound alone, 1.0 μM
  viability at 1 µM: 82.8%
[2]; [4]
  viability at 0.1 µM: 92%
  viability at 10 µM: 81.9%
[2]; Homo sapiens, VCaP, 120 h, read-out: Survival rate of Vcap cells, Table 4, tested compound alone, 1 μM
  viability at 1 µM: 82.8%
[2]; [5]
  viability at 0.1 µM: 87.7%
  viability at 10 µM: 72.3%
[2]; Homo sapiens, VCaP, 120 h, read-out: Survival rate of Vcap cells, Table 5, tested compound alone, 1.0 μM
  viability at 1 µM: 75.3%
[2]; [6]
  viability at 0.1 µM: 83.9%
  viability at 10 µM: 69.1%
[2]; Homo sapiens, VCaP, 120 h, read-out: Survival rate of Vcap cells, Table 9, tested compound alone, 1.0 μM
  viability at 1 µM: 74.8%
[2]; [7]
  viability at 0.1 µM: 83.9%
  viability at 10 µM: 69.1%
[2]; Homo sapiens, VCaP, 120 h, read-out: Survival rate of Vcap cells, Table 10, tested compound alone, 1.0 μM
  viability at 1 µM: 74.7%
[2]; [8]
  inhibition at 0.41 µM: 18.7%
  inhibition at 1.23 µM: 20.7%
  inhibition at 11.11 µM: 20.9%
  inhibition at 33.33 µM: 22%
  inhibition at 100 µM: 19.6%
[2]; Table 3, tested compound 0.1 μM in combination with 1 μM ARN-509
  Survival rate of Vcap cells: 42.0%
[2]; Table 3, tested compound 0.1 μM in combination with 1 μM Enzalutamide
  Survival rate of Vcap cells: 40.3%
[2]; Table 3, tested compound 1.0 μM in combination with 1 μM ARN-509
  Survival rate of Vcap cells: 34.7%
[2]; Table 3, tested compound 1.0 μM in combination with 1 μM Enzalutamide
  Survival rate of Vcap cells: 35.6%
[2]; Table 3, tested compound 10 μM in combination with 1 μM ARN-509
  Survival rate of Vcap cells: 33.5%
[2]; Table 3, tested compound 10 μM in combination with 1 μM Enzalutamide
  Survival rate of Vcap cells: 33.7%
[2]; Table 3, tested compound alone, 1.0 μM
  Survival rate of Vcap cells: 82.8%
[2]; Table 4, tested compound 0.1 μM in combination with 1 μM Abiraterone acetate
  Survival rate of Vcap cells: 78.5%
[2]; Table 4, tested compound 0.1 μM in combination with 1 μM Galeterone
  Survival rate of Vcap cells: 51.1%
[2]; Table 4, tested compound 1 μM in combination with 1 μM Abiraterone acetate
  Survival rate of Vcap cells: 68.0%
[2]; Table 4, tested compound 1 μM in combination with 1 μM Galeterone
  Survival rate of Vcap cells: 43.3%
[2]; Table 4, tested compound 10 μM in combination with 1 μM Abiraterone acetate
  Survival rate of Vcap cells: 62.9%
[2]; Table 4, tested compound 10 μM in combination with 1 μM Galeterone
  Survival rate of Vcap cells: 42.8%
[2]; Table 4, tested compound alone, 1 μM
  Survival rate of Vcap cells: 82.8%
[2]; Table 5, tested compound 0.1 μM in combination with 1 μM ODM-201
  Survival rate of Vcap cells: 52.7%
[2]; Table 5, tested compound 1.0 μM in combination with 1 μM ODM-201
  Survival rate of Vcap cells: 41.4%
[2]; Table 5, tested compound 10 μM in combination with 1 μM ODM-201
  Survival rate of Vcap cells: 37.5%
[2]; Table 5, tested compound alone, 1.0 μM
  Survival rate of Vcap cells: 75.3%
[2]; Table 9, tested compound 0.1 μM in combination with 1 μM ARN-509
  Survival rate of Vcap cells: 50.9%
[2]; Table 9, tested compound 0.1 μM in combination with 1 μM Enzalutamide
  Survival rate of Vcap cells: 52.1%
[2]; Table 9, tested compound 1.0 μM in combination with 1 μM ARN-509
  Survival rate of Vcap cells: 42.6%
[2]; Table 9, tested compound 1.0 μM in combination with 1 μM Enzalutamide
  Survival rate of Vcap cells: 42.3%
[2]; Table 9, tested compound 10 μM in combination with 1 μM ARN-509
  Survival rate of Vcap cells: 40.9%
[2]; Table 9, tested compound 10 μM in combination with 1 μM Enzalutamide
  Survival rate of Vcap cells: 38.4%
[2]; notes of Table 9: 1.0 μM tested compound in combination with 1.0 μM Enzalutamide
  Cell survival rate: 42.6%
